Activity calls are given as the source filed them. The rule behind the calls is not given here.

Data set [1] is filed under the species Homo sapiens. Briefly: Ratio of binding affinity to VHL/BRM bromodomain (unknown origin) assessed as ternary complex association half life by SPR analysis to binding affinity to VHL/ BRG1 bromodomain (unknown origin) assessed as ternary complex association half life by SPR analysis. (SPR reads the build-up and loss of mass on a sensor chip optically.)
Data set [2] in a line: Metabolic stability in human liver microsome assessed as hepatic extraction ratio measured upto 60 mins by LC-MS/MS analysis. As to conditions: liver microsomes. The class given is ADME. (Liver microsomes are a subcellular fraction often used to study metabolism.)
The target of data set [3] is T1, von Hippel-Lindau disease tumor suppressor/SWI/SNF-related matrix-associated actin-dependent regulator of chromatin subfamily A member 2 (Homo sapiens, UniProt P51531+P40337). Briefly: PROTAC activity at VHL/BRM in human SW1573 cells assessed as induction of […] incubated for 22 hrs by Western blotting analysis. The class given is cell-based.
Target sequence in this assay (P51531 whole entry): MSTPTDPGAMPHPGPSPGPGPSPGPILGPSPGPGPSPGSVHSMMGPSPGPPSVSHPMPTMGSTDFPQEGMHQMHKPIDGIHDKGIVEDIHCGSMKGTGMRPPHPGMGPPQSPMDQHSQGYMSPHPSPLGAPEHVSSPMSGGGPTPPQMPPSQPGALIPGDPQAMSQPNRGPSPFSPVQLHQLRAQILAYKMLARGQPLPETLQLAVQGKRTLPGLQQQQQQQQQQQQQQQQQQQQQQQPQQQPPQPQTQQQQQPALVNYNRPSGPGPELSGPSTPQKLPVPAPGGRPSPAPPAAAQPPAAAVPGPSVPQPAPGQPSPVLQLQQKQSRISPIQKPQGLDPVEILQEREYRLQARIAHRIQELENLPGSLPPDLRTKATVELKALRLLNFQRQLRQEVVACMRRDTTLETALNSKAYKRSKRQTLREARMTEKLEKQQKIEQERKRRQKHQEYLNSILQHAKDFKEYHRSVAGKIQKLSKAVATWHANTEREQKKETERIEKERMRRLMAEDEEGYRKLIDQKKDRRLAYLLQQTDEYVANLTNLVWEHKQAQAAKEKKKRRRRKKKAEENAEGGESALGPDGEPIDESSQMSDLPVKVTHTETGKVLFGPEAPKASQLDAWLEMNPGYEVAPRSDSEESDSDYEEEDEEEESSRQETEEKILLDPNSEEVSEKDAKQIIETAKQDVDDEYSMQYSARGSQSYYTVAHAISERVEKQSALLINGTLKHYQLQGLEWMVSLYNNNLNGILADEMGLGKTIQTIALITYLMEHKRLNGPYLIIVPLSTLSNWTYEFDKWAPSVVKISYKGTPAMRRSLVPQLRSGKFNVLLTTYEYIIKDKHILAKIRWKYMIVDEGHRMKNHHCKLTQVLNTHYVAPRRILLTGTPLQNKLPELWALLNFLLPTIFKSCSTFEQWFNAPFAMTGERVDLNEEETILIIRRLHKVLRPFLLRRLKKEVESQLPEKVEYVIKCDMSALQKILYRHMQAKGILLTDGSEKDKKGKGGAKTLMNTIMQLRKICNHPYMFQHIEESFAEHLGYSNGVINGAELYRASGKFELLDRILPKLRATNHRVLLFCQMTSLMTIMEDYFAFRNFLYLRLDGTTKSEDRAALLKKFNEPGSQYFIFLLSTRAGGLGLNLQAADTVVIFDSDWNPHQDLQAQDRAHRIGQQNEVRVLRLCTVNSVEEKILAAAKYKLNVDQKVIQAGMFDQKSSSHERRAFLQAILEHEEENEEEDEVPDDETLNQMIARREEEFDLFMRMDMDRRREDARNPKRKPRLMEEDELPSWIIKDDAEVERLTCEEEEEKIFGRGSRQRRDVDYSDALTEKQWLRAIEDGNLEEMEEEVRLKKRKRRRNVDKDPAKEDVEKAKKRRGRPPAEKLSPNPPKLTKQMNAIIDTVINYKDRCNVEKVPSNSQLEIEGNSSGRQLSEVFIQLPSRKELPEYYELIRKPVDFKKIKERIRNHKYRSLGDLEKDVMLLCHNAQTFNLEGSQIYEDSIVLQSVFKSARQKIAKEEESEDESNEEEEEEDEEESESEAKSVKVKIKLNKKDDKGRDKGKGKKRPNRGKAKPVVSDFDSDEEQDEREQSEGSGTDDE
Target sequence in this assay (P40337 whole entry): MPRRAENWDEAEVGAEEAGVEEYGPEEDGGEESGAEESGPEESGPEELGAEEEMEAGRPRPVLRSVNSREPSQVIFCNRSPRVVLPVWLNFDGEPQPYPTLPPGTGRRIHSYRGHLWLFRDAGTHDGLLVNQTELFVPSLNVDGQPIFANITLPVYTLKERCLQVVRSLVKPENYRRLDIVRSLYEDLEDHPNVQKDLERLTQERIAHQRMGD
Data set [4] addresses von Hippel-Lindau disease tumor suppressor/SWI/SNF-related matrix-associated actin-dependent regulator of chromatin subfamily A member 4 (Homo sapiens, UniProt P51532+P40337). As to the kind of experiment: PROTAC activity at VHL/ BRG1 in human SW1573 cells assessed as induction of BRG1 degradation incubated for 22 hrs by Western blotting analysis. The class given is cell-based.

For another data set, the system named is NCI-H1944. As to the kind of experiment: Antiproliferative activity against BRM-dependent human NCI-H1944 cells assessed as growth inhibition incubated for 7 days by celltiter glo 2.0 assay. As to conditions: NCI-H1944, 168 h, time 7 day. The class given is functional. For orientation: In ATP-based viability assays light output follows the ATP content of the culture.

The next data set has as its system Calu-6. Briefly: Antiproliferative activity against human Calu-6 cells assessed as growth inhibition incubated for 7 days by celltiter glo 2.0 assay. The class given is functional. As to conditions: Calu-6, 168 h, time 7 day.
In data set [5] the target is T1, von Hippel-Lindau disease tumor suppressor/SWI/SNF-related matrix-associated actin-dependent regulator of chromatin subfamily A member 2.
Target sequence in this assay (P40337 whole entry, looked up): as the sequence (P40337 whole entry) above
Target sequence in this assay (P51531 whole entry, looked up): as the sequence (P51531 whole entry) above
Data set [6] is filed under the species Homo sapiens. Briefly: Ratio of DC50 for VHL/ BRG1 in human SW1573 cells to DC50 for VHL/BRM in human SW1573 cells. The class given is cell-based.
Data set [7] can be described thus: Plasma protein binding in mouse incubated for 15 mins by LC-MS/MS analysis. The class given is ADME, cell-free. The following applies: read-out: PPB (converted).
A short description of data set [8]: Toxicity in CD-1 mouse xenografted with BRM-dependent human HCC2302 cells assessed as animal survival at 10 mg/kg, ip measured at 15 days. The following applies: in vivo, 360 h, time 15 day. The format is organism-based.
The subject of data set [9] is SW1573. As to the kind of experiment: Induction of PATJ degradation in human SW1573 cells at 100 nM incubated for 8 hrs by proteomics analysis. The class given is cell-based.
Data set [10] deals with Mus musculus. Briefly: In-vivo PROTAC activity at BRM/VHL in CD-1 mouse xenografted with Murine stromal cell line at 20 mg/kg, iv measured for 96 hrs. The class given is functional.
Data set [11] can be described thus: Drug concentration in mouse tumor at 20 mg/kg, ip measured for 96 hrs. The following applies: read-out: Ct. The class given is ADME, organism-based, Neoplasm.
A short description of data set [12]: Drug concentration in mouse plasma measured for 24 hrs. The format is ADME, cell-free.
The nature of data set [13]: Toxicity in CD-1 mouse xenografted with BRM-dependent human HCC2302 cells assessed as tolerability at 10 mg/kg, ip measured at 15 days. The format is organism-based. As to conditions: in vivo, 360 h, time 15 day.
The next data set concerns HCC2302. As to the kind of experiment: Antitumor activity against human BRM-dependent HCC2302 cells xenografted in CD-1 mouse assessed as reduction in tumor growth at 10 to 30 mg/kg, ip administered once daily for 11 days. The format is functional, organism-based. As to conditions: dose 10-30 mg/kg, time 11.0 day.
Data set [14] relates to Mus musculus. Briefly: In-vivo PROTAC activity at BRM/VHL in CD-1 mouse xenografted with human HCC2302 cells at 20 mg/kg, iv measured for 96 hrs. The format is functional.
Data set [15] in a line: Toxicity in CD-1 mouse xenografted with BRM-dependent human HCC2302 cells assessed as animal death at 10 to 30 mg/kg, ip measured at 9 to 13 days. The class given is organism-based. The following applies: in vivo, dose lower 10 mg/kg, time lower 9 day, dose upper 30 mg/kg, time upper 13 day.
The target of data set [16] is MAP kinase-activated protein kinase 3 (Homo sapiens) (UniProt Q16644). As to the kind of experiment: Induction of MAPKAPK3 degradation in human SW1573 cells at 100 nM incubated for 8 hrs by proteomics analysis. The format is cell-based.
MAP kinase-activated protein kinase 3 (Homo sapiens), sequence (Q16644 whole entry, looked up): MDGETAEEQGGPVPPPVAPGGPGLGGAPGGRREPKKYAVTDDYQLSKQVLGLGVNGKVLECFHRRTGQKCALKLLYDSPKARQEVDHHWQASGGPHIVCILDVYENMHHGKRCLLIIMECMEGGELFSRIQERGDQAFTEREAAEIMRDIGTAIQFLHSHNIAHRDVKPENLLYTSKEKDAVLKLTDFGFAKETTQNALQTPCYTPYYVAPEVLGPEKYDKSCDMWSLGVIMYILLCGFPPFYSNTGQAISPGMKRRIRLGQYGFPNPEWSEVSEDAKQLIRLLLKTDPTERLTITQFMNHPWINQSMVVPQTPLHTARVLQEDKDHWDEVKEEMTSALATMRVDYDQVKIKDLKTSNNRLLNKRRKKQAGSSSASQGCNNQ
For data set [17], the system named is SW1573. Briefly: Induction of PALS1 degradation in human SW1573 cells at 100 nM incubated for 8 hrs by proteomics analysis. The format is cell-based.
Data set [18] can be described thus: Half life in mouse at 1 mg/kg, iv measured upto 60 mins by LC-MS/MS analysis. The class given is ADME, organism-based. The following applies: in vivo.
The target of data set [19] is Protein polybromo-1 (Homo sapiens) (UniProt Q86U86). As to the kind of experiment: Induction of PBRM1 degradation in human SW1573 cells at 100 nM incubated for 8 hrs by proteomics analysis. The class given is cell-based.
For data set [20], the target named is Urokinase-type plasminogen activator (Homo sapiens) (UniProt P00749). Briefly: Induction of PLAU degradation in human SW1573 cells at 100 nM incubated for 8 hrs by proteomics analysis. The class given is cell-based.
Data set [21] can be described thus: Toxicity in CD-1 mouse xenografted with BRM-dependent human HCC2302 cells assessed as body weight loss at 10 to 30 mg/kg, ip administered once daily for 11 days. The class given is organism-based. The following applies: in vivo, 264 h, dose 10-30 mg/kg, time 11 day.
Data set [22] is described as follows: Clearance in mouse at 1 mg/kg, iv measured upto 60 mins by LC-MS/MS analysis. The format is ADME, organism-based. As to conditions: in vivo, 1 h.

von Hippel-Lindau disease tumor suppressor/SWI/SNF-related matrix-associated actin-dependent regulator of chromatin subfamily A member 4, sequence (P51532 whole entry): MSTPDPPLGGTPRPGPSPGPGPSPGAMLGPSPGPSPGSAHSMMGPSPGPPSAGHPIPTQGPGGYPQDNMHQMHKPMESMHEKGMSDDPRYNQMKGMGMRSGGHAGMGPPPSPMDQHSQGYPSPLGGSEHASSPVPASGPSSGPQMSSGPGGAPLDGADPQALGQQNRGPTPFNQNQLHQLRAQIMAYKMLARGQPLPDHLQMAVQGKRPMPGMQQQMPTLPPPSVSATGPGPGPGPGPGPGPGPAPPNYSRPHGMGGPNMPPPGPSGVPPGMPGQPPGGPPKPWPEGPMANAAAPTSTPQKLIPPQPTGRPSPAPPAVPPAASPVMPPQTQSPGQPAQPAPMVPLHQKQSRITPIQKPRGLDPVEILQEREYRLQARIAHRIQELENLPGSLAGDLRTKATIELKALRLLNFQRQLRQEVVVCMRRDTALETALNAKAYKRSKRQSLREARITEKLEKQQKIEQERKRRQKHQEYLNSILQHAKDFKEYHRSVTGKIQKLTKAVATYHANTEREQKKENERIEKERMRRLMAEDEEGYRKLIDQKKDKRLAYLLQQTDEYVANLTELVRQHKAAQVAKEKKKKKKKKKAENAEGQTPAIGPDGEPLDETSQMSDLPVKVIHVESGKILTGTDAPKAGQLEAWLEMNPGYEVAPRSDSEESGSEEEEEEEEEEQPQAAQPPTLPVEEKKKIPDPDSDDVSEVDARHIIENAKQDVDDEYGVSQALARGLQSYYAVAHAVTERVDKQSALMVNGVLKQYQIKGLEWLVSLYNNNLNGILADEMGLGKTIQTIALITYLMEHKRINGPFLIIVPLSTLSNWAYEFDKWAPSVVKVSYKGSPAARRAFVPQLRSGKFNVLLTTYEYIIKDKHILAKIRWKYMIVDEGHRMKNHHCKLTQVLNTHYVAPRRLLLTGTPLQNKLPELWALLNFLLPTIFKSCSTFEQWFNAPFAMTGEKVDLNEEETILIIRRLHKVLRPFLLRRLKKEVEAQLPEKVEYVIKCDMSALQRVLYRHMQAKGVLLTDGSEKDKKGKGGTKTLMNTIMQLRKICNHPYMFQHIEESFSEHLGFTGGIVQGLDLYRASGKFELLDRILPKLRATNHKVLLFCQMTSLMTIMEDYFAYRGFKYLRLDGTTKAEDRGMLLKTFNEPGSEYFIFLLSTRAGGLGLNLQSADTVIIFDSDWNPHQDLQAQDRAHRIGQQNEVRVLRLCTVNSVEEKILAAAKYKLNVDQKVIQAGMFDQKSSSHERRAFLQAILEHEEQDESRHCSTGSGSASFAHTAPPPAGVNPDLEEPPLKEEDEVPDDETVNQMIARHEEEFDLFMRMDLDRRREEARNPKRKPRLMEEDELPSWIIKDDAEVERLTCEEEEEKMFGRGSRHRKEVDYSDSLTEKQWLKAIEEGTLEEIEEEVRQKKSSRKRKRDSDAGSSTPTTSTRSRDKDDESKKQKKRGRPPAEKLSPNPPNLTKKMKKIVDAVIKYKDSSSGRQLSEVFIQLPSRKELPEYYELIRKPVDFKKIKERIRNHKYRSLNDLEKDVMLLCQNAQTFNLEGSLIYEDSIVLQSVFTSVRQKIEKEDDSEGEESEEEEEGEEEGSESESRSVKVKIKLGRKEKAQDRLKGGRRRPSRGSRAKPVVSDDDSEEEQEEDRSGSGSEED
von Hippel-Lindau disease tumor suppressor/SWI/SNF-related matrix-associated actin-dependent regulator of chromatin subfamily A member 4, sequence (P40337 whole entry): as the sequence (P40337 whole entry) above

Take `Cc1ncsc1-c1ccc([C@H](C)NC(=O)[C@@H]2C[C@@H](O)CN2C(=O)[C@@H](c2cc(OCCN3CCN(CCOc4cc(N5C6CCC5CN(c5cc(-c7ccccc7O)nnc5N)C6)ccn4)CC3)no2)C(C)C)cc1`: the Ratio in the data set filed under Homo sapiens [1] turned out to be 0.33; in the data set filed under Homo sapiens [6], 22. Besides, the hepatic extraction ratio at 1 h in data set [2] stood at 0.72. Also, the DC50 in data set [3] came to 0.068 nM; in data set [4] it was 1.5 nM. The GI50 was determined as 0.17 nM in the data set on NCI-H1944 and 7 nM with Calu-6. For the same compound, in [5], the T1/2 stood at 6 s. Also, in data set [7], the fraction unbound at 0.25 h is 0.016.

For `Cc1ncsc1-c1ccc([C@H](C)NC(=O)[C@@H]2C[C@@H](O)CN2C(=O)[C@@H](c2cc(OCCN3CCC(O[C@H]4C[C@H](Oc5cc(N6C7CCC6CN(c6cc(-c8ccccc8O)nnc6N)C7)ccn5)C4)CC3)no2)C(C)C)cc1`, the Activity result in data set [8] is reported as “Non-Toxic”; in the data set on Mus musculus [10], 4%; in data set [13] it was “Non-Toxic”; in the data set with Mus musculus [14] it was 64%; in data set [15], “Toxic”; in [21], “Toxic”. Further, the result (with SW1573 [9]; with HCC2302; in [16]; in the data set on SW1573 [17]; in data set [19]; in data set [20]) was Active. Further, the concentration at 96 h in data set [11] was determined as 158 ng/g. The concentration at 24 h in data set [12] turned out to be 26 nM. Moreover, the GI50 in the data set on NCI-H1944 stood at 0.64 nM; in the data set with Calu-6 it was 24 nM. In [18], this compound gave a half-life of 2.6 h. Besides, the fraction unbound at 0.25 h in data set [7] was 0.027. The clearance in data set [22] turned out to be 22 mL/min/kg.

What is called DC50 is the midpoint of the concentration-degradation curve. In general, GI50 refers to the concentration that inhibits growth by half. What is called half-life is the time in which the quantity being followed falls by half. A higher half-life goes with slow decline. A word on the clearance: it is the volume of plasma or blood freed of the substance per unit of time. A lower clearance goes with inefficient removal.

For the origin of these results see ChEMBL document CHEMBL5537166, “PROTACs Targeting BRM (SMARCA2) Afford Selective In Vivo Degradation over BRG1 (SMARCA4) and Are Active in BRG1 Mutant Xenograft Tumor Models” (J Med Chem, 2024).
